T/C data for 16 molecules are collected here from PubChem BioAssay AID274 (DTP/NCI, 2004).

For this test, the system named is BDF1 mice, Lewis lung carcinoma iv, survival T/C. The experiment in a line: NCI In Vivo Anticancer Drug Screen. Data for tumor model Lewis Lung Carcinoma (intravenous) in B6D2F1 (BDF1) mice. As to conditions: endpoint: median survival time, higher = longer survival. On the procedure:
The antitumor activity of compounds was measured in mice bearing transplantable tumors. Survival or tumor size were measured and the results are expressed as the measurement made in the treated group (T) divided by the measurement made in the vehicle treated control group (C). The tumor model used in this assay is Lewis Lung Carcinoma (intravenous) in B6D2F1 (BDF1) mice

[1] abbreviates: dose: 1.0 mg/kg/injection, schedule: Q01DX009 (ip), vehicle: saline.
Where [2] appears, read: dose: 2.0 mg/kg/injection, schedule: Q01DX009 (ip), vehicle: saline.
[3] abbreviates: dose: 8.0 mg/kg/injection, schedule: Q01DX009 (ip), vehicle: saline.
[4] abbreviates: dose: 16.0 mg/kg/injection, schedule: Q01DX009 (ip), vehicle: saline.
Where [5] appears, read: dose: 1.0 mg/kg/injection, schedule: Q01DX009 (ip), vehicle: Klucel (hydroxypropylcellulose) (HPC).
Setting [6] is: dose: 2.0 mg/kg/injection, schedule: Q01DX009 (ip), vehicle: Klucel (hydroxypropylcellulose) (HPC).
[7] abbreviates: dose: 12.5 mg/kg/injection, schedule: Q01DX009 (ip), vehicle: saline with Tween-80.
Where [8] appears, read: dose: 25.0 mg/kg/injection, schedule: Q01DX009 (ip), vehicle: saline with Tween-80.
Where [9] appears, read: dose: 50.0 mg/kg/injection, schedule: Q01DX009 (ip), vehicle: saline with Tween-80.
Setting [10] is: dose: 200.0 mg/kg/injection, schedule: Q01DX009 (ip), vehicle: saline with Tween-80.

Where “and” joins values, the source holds several entries; their conditions need not be identical. Equal entries are not always repeated. Toxic doses and inconclusive results are not listed.

For `CC1OC(O[C@H]2/C=C/C=C/C=C/C=C/C=C/C=C/C=C/[C@H](C)[C@@H](O)[C@@H](C)[C@H](C)OC(=O)C[C@H](O)C[C@H](O)CC[C@@H](O)[C@H](O)C[C@H](O)C[C@]3(O)C[C@H](O)[C@@H](C(=O)O)[C@H](C2)O3)C(O)C(N)C1O` (stereo partly drawn), the T/C was 105 % of control under setting [1], 109 % of control under setting [2], 109 % of control under setting [3] and 124 % of control under setting [4].

As for `O=C1C=CC(=Nc2ccc3c(c2)C(Br)c2ccccc2-3)O1` (stereo not drawn), the T/C was 115 % of control (dose: 5.0 mg/kg/injection, schedule: Q01DX009 (ip), vehicle: saline with Tween-80); 111 % of control (dose: 10.0 mg/kg/injection, schedule: Q01DX009 (ip), vehicle: saline with Tween-80); 112 % of control (dose: 20.0 mg/kg/injection, schedule: Q01DX009 (ip), vehicle: saline with Tween-80).

As to `O=NN(CCCl)C(=O)NC1CCCCC1`, the T/C under setting [5] is 106 % of control; the T/C under setting [6] is 108 % of control; the T/C (dose: 4.0 mg/kg/injection, schedule: Q01DX009 (ip), vehicle: Klucel (hydroxypropylcellulose) (HPC)) is 120 % of control; the T/C (dose: 8.0 mg/kg/injection, schedule: Q01DX009 (ip), vehicle: Klucel (hydroxypropylcellulose) (HPC)) is 213 % of control; the T/C (dose: 16.0 mg/kg/injection, schedule: Q01DX009 (ip), vehicle: Klucel (hydroxypropylcellulose) (HPC)) was 118 % of control; the T/C (dose: 32.0 mg/kg/injection, schedule: Q01DX009 (ip), vehicle: Klucel (hydroxypropylcellulose) (HPC)) is 93 % of control.

With `Nc1ccccc1N`, the T/C is 96 % of control (dose: 12.5 mg/kg/injection, schedule: Q01DX009 (ip), vehicle: Klucel (hydroxypropylcellulose) (HPC)); 107 % of control (dose: 25.0 mg/kg/injection, schedule: Q01DX009 (ip), vehicle: Klucel (hydroxypropylcellulose) (HPC)); 101 % of control (dose: 50.0 mg/kg/injection, schedule: Q01DX009 (ip), vehicle: Klucel (hydroxypropylcellulose) (HPC)); 91 % of control (dose: 100.0 mg/kg/injection, schedule: Q01DX009 (ip), vehicle: Klucel (hydroxypropylcellulose) (HPC)).

`COc1cc(NS(C)(=O)=O)ccc1Nc1c2ccccc2nc2ccccc12`: the T/C reads like this: (dose: 3.6 mg/kg/injection, schedule: Q04DX003 (ip), vehicle: clinical formulation) 104 % of control; (dose: 6.0 mg/kg/injection, schedule: Q04DX003 (ip), vehicle: clinical formulation) 108 % of control; (dose: 16.7 mg/kg/injection, schedule: Q04DX003 (ip), vehicle: clinical formulation) 121 % of control.

For the molecule `CN=C(N)N/N=C(\C)c1ccc2oc3ccc(/C(C)=N/NC(N)=NC)cc3c2c1`, the T/C under setting [7] was 98 % of control and the T/C under setting [8] is 118 % of control.

On to `CC(C)CCCCCCCCCCCCC(=O)NCC(=O)NC1C(O)C(O)C(Nc2ncnc3nc[nH]c23)OC1C(O)CO` (stereo not drawn), for which the T/C was 102 % of control (dose: 0.25 mg/kg/injection, schedule: Q01DX009 (ip), vehicle: Klucel (hydroxypropylcellulose) (HPC)); 90 % of control under setting [5]; 93 % of control under setting [6].

For the molecule `CCS(=O)(=O)OCCCCOS(=O)(=O)CC`, the T/C is, setting by setting: (dose: 3.13 mg/kg/injection, schedule: Q01DX009 (ip), vehicle: saline) 99 % of control; (dose: 6.25 mg/kg/injection, schedule: Q01DX009 (ip), vehicle: saline) 103 % of control.

With `CNC=O`, the T/C reads like this: (dose: 100.0 mg/kg/injection, schedule: Q01DX009 (ip), vehicle: saline sonified) 106 % of control; (dose: 200.0 mg/kg/injection, schedule: Q01DX009 (ip), vehicle: saline sonified) 114 % of control; (dose: 400.0 mg/kg/injection, schedule: Q01DX009 (ip), vehicle: saline sonified) 115 % of control.

Take `CCOC(C)C(/C=N/NC(N)=S)=NNC(N)=S` (stereo not drawn): the T/C under setting [7] is 157 % of control, the T/C under setting [8] was 95 % of control, the T/C under setting [9] is 104 % of control and the T/C under setting [10] was 114 % of control.

With `O=C1C2(Cl)C3(Cl)C4(Cl)C(Cl)(Cl)C5(Cl)[C@]3(Cl)C1(Cl)[C@]5(Cl)C24Cl` (stereo partly drawn), the T/C is 301 % of control (dose: 1.56 mg/kg/injection, schedule: Q01DX009 (ip), vehicle: saline with Tween-80); 110 % of control (dose: 3.12 mg/kg/injection, schedule: Q01DX009 (ip), vehicle: saline with Tween-80); 95 % of control (dose: 6.25 mg/kg/injection, schedule: Q01DX009 (ip), vehicle: saline with Tween-80); 122 % of control under setting [7].

Regarding `Nc1ccc(Cl)cc1N`, the T/C is 92 % of control under setting [7]; 93 % of control under setting [8]; 99 % of control under setting [9]; 104 % of control (dose: 100.0 mg/kg/injection, schedule: Q01DX009 (ip), vehicle: saline with Tween-80); 102 % of control under setting [10].

Turning to `O=c1[nH]cc(F)c(=O)[nH]1`, the T/C was 106 % of control under setting [2]; 108 % of control (dose: 2.5 mg/kg/injection, schedule: Q01DX009 (ip), vehicle: saline); 110 % of control (dose: 4.0 mg/kg/injection, schedule: Q01DX009 (ip), vehicle: saline); 116 % of control (dose: 5.0 mg/kg/injection, schedule: Q01DX009 (ip), vehicle: saline); 96 % of control (2×) and 110 % of control (dose: 7.5 mg/kg/injection, schedule: Q04DX003 (ip), vehicle: saline); 112 % of control under setting [3]. The T/C was 122 % of control (dose: 9.8 mg/kg/injection, schedule: Q01DX009 (ip), vehicle: saline); 104 % of control and 109 % of control and 122 % of control (dose: 10.0 mg/kg/injection, schedule: Q01DX009 (ip), vehicle: saline); 104 % of control (dose: 13.2 mg/kg/injection, schedule: Q04DX006 (ip), vehicle: saline); 163 % of control (dose: 14.0 mg/kg/injection, schedule: Q01DX009 (ip), vehicle: saline); 193 % of control (dose: 14.0 mg/kg/injection, schedule: Q01DX022 (ip), vehicle: saline); 105 % of control and 110 % of control (2×) (dose: 15.0 mg/kg/injection, schedule: Q04DX003 (ip), vehicle: saline). Moreover, the T/C is 107 % of control under setting [4]; 109 % of control (dose: 28.6 mg/kg/injection, schedule: Q01DX009 (ip), vehicle: saline); 122 % of control (dose: 32.0 mg/kg/injection, schedule: Q01DX009 (ip), vehicle: saline); 109 % of control (dose: 40.9 mg/kg/injection, schedule: Q01DX009 (ip), vehicle: saline); 150 % of control (dose: 60.0 mg/kg/injection, schedule: Q04DX003 (ip), vehicle: saline).

As for `CC(=O)OC/C=C(C)/C=C/C=C(C)/C=C/C1=C(C)CCCC1(C)C`, the T/C was 115 % of control (dose: 6.25 mg/kg/injection, schedule: Q01DX005 (ip), vehicle: saline with Tween-80); 91 % of control (dose: 12.5 mg/kg/injection, schedule: Q01DX005 (ip), vehicle: saline with Tween-80); 97 % of control (dose: 25.0 mg/kg/injection, schedule: Q01DX005 (ip), vehicle: saline with Tween-80); 97 % of control (dose: 50.0 mg/kg/injection, schedule: Q01DX005 (ip), vehicle: saline with Tween-80); 98 % of control (dose: 100.0 mg/kg/injection, schedule: Q01DX005 (ip), vehicle: saline with Tween-80); 104 % of control (dose: 200.0 mg/kg/injection, schedule: Q01DX005 (ip), vehicle: saline with Tween-80).

In the case of `CCCCCCCCCCCC(c1ccccc1)[N+](C)(C)Cc1ccccc1` (stereo not drawn), the T/C is 98 % of control under setting [1] and 124 % of control under setting [2].

Consider `S=P(N1CC1)(N1CC1)N1CC1`, for which the T/C was 106 % of control and 110 % of control and 116 % of control (dose: 1.0 mg/kg/injection, schedule: Q01DX009 (ip), vehicle: saline with Tween-80); 113 % of control (2×) and 116 % of control (dose: 2.0 mg/kg/injection, schedule: Q01DX009 (ip), vehicle: saline with Tween-80); 118 % of control and 119 % of control and 123 % of control (dose: 4.0 mg/kg/injection, schedule: Q01DX009 (ip), vehicle: saline with Tween-80); 100 % of control and 110 % of control (dose: 8.0 mg/kg/injection, schedule: Q01DX009 (ip), vehicle: saline with Tween-80); 112 % of control (dose: 16.0 mg/kg/injection, schedule: Q01DX009 (ip), vehicle: saline with Tween-80).
